Data from patent US9359372B2, “Hexahydrodibenzo[a,g]quinolizine compound, preparation method thereof, pharmaceutical composition and use thereof” (SHANGHAI INSTITUTE OF MATERIA MEDICA, CHINESE ACADEMY OF …, priority 2011, dated 2016).

Assays:
dopamine D1 receptor = dopamine D1 receptor (Macaca mulatta (Rhesus macaque), UniProt O77680); test: Affinity on dopamine D1 receptor, competition with [3H] SCH23390; assay type: binding; design: D1 receptor inhibition ratio (%): concentration or dose not given beside the values; details: for affinity on dopamine D1 receptor (in words): summary of the tables
Procedure: (§1) (1). Determination of the Affinity of Hexahydrodibenzo[a,g]Quinolizine Compound of General Formula I and Derivatives Thereof on Dopamine D1, Dopamine D2, 5-HT1A, and 5-HT2A Receptor.
(§2) 1) The Experimental Method
(§3) Different concentrations (10^−5 M-10^−11 M) of the compound of the invention and corresponding isotope receptor ligand as well as receptor protein were loaded into the reaction tube and incubated in 30° C. water bath for 60 minutes. The reaction was terminated in a refrigerator. The reaction mixture was put in a Millipore filter (millipore) cell sample collector, filtered through suction filtration using GF/C glass fiber filter paper, and dried. The resulting sample was placed into 0.5 mL tube. 500 μL liquid scintillation fluid was added and intensity of radioactivity was determined by counting.
(§4) (1) Construction of receptor and materials for cell culture: Escherichia coli. DH5α strain; insect virus transfer vector pVL1393 plasmid; BaculoGold linear Chinese baculovirus DNA, purchased from ParMingen company; mkD1RcDNA; rD2R cDNA; various restriction endonucleases, TaqDNA polymerase, T4 ligase, etc., LB medium; insect cell culture TNM-FH.
(§5) (2) the Experimental Materials for Receptor Binding
(§6) Firstly, the above […] are dissolved in DMSO and then diluted with double distilled water to the appropriate concentration (10^−5 M-10^−11 M).
(§7) (+) Butaclamo purchased from RBI company, GF/C glass fiber filter paper purchased from Whatman Co., scintillation fluid (dopamine D1, D2 receptors)/liposoluble scintillation fluid (5-HT1A, 5-HT2A receptor), Beckman LS-6500 multi-function liquid scintillation counter.

D2 dopamine receptor = D2 dopamine receptor (Rattus norvegicus (Rat), UniProt P61169); test: Affinity on dopamine D2 receptor, competition with [3H] Spiperone; assay type: binding; design: D2 receptor inhibition ratio (%): concentration or dose not given beside the values; details: for affinity on dopamine D2 receptor (in words): summary of the tables
Procedure: as §1, §2, §3, §4, §5, §6, §7

dopamine D2 receptor [1] = target: T1, dopamine D2 receptor (Homo sapiens (Human), UniProt P14416); test: Inhibition property on dopamine D2 receptor, cAMP detection in CHO cells stably expressing D2 receptor; assay type: cell-based; details: 10 μM Forskoline and 10 μM dopamine, read-out: D2 receptor Antagonist IC50
Procedure: 2. Determination of the Inhibition Property of Hexahydrodibenzo[a,g]Quinolizine Compound of General Formula I and Derivatives Thereof on Dopamine D2 Receptor.
(1) The Experimental Method
Each medicament was dissolved in serum-free F12 culture medium containing 100 μM of IBMX. CHO cells which can stably express D2 receptor were pre-incubated at 37° C. for 10 min, and then 10 μM Forskoline and 10 μM Dopanie were added at the same time to react for 10 min. 100 μL, of pre-cooled 1 M of HClO4 was added and the reaction was terminated at 4° C. for 1 hour. 20 μL of 2 M K2CO3 was added to neutralize the reaction. […] A certain amount of the supernatant was taken for cAMP detection.

D1 dopamine receptors = D1 dopamine receptors (Homo sapiens (Human), UniProt P21728); test: Radioligand binding assay, D1 receptor, HEK293T membrane homogenates; details: HEK293T membranes, [3H]SCH23390
Procedure: (§8) The affinity of compounds to D1 and D2 dopamine receptors were determined by competition binding assays. Membrane homogenates of HEK293T cells were stably transfected with D1, or D2 receptors. […] The reaction was started by addition of membranes ([…]) and stopped by rapid filtration through Whatman GF/B glassfiber filter and subsequently washed with cold buffer (50 mM Tris, 5 mM EDTA, pH 7.4) using a Brandel 24-well cell harvester. Scintillation cocktail was added and the radioactivity was determined in a MicroBeta liquid scintillation counter. The IC50 and Ki values were calculated by nonlinear regression (PRISM, Graphpad, San Diego, Calif.) using a sigmoidal function.

dopamine D2 receptor [2] = target: T1, dopamine D2 receptor; test: Radioligand binding assay, D2 receptor, HEK293T membrane homogenates; design: D2 Inhibition (%): concentration or dose not given beside the values; details: HEK293T membranes, [3H]Spiperone
Procedure: as §8

5-HT1A receptor = 5-HT1A receptor (Homo sapiens (Human), UniProt P08908); test: Affinity on 5-HT1A receptor, competition with [3H] 8-OH-DPAT; assay type: binding
Procedure: as §1, §2, §3, §5
8-OH-DPAT; 5-HT1A receptor protein expressed in HEK-293 cells;
as §6, §7

D1 receptor = D1 receptor (Homo sapiens (Human), UniProt P21728); test: [35S]GTPγS binding assay for D1 receptor; assay type: biochemical
Chain of D1 receptor (P21728 whole entry): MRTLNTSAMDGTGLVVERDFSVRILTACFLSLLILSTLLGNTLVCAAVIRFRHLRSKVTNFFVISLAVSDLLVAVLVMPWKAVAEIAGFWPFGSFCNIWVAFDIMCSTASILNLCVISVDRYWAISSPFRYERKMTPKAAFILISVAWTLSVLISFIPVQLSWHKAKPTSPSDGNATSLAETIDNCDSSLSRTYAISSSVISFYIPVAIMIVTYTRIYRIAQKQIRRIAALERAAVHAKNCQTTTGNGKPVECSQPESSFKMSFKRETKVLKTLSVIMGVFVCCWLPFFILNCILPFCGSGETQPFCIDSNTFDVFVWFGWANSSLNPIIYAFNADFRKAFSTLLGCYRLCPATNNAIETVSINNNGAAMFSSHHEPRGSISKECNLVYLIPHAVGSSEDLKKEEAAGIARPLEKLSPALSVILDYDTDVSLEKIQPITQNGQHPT

Chain of dopamine D1 receptor (O77680 whole entry): as the sequence (P21728 whole entry) above, with N311I counted along it
Chain of D2 dopamine receptor (P61169 whole entry): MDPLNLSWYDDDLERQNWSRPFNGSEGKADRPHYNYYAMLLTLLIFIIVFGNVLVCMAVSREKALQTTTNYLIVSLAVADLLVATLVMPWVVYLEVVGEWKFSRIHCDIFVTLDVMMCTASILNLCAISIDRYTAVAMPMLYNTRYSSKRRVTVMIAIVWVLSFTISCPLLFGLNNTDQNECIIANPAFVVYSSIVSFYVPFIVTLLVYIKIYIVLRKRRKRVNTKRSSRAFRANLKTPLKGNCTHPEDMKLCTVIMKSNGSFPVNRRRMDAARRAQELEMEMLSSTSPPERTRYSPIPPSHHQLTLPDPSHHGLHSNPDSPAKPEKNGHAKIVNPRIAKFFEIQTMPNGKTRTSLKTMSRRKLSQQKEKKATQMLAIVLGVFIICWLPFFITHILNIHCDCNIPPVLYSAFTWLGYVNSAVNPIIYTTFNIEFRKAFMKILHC
Chain of D1 dopamine receptors (P21728 whole entry): as the sequence (P21728 whole entry) above
T1 sequence (P14416 whole entry, species assumed): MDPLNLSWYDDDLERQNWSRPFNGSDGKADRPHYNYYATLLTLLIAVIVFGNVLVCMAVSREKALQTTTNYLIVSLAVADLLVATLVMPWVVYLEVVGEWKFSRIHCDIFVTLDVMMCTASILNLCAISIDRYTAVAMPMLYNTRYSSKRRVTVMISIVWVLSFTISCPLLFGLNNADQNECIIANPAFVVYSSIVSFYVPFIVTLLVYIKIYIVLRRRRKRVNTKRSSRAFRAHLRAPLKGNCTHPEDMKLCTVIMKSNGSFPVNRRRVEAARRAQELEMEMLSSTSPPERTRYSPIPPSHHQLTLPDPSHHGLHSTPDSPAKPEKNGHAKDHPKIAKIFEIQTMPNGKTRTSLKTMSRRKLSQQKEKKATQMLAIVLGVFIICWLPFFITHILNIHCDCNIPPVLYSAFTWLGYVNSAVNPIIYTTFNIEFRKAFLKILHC
Chain of 5-HT1A receptor (P08908 whole entry): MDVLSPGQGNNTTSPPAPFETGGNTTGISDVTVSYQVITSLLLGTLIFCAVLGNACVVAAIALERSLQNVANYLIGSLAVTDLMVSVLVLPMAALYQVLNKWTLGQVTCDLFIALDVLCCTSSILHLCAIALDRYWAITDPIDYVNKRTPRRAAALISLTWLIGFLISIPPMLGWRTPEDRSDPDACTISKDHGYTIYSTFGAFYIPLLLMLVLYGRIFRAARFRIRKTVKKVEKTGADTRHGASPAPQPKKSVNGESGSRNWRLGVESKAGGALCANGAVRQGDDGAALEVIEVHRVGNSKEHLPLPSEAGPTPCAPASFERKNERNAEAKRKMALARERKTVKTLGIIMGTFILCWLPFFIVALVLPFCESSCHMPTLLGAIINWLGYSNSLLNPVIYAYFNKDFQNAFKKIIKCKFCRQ

| SMILES | D1 receptor inhibition ratio (%) (dopamine D1 receptor) | IC50 (dopamine D1 receptor) | Ki (dopamine D1 receptor) | D2 receptor inhibition ratio (%) (D2 dopamine receptor) | Ki (D1 dopamine receptors) | also measured |
| --- | --- | --- | --- | --- | --- | --- |
| COc1cc2c(cc1OC)C1Cc3c(OC)ccc(OC)c3CN1CC2 (racemic) [DC037003, (±)-2,3,9,12-tetramethoxy-5,8,13,13a-tetrahydro-6H-dibenzo[a,g]quinolizine] | 98.0% | 370 nM | 247 nM | 75.75% | – | IC50 (dopamine D2 receptor [1]): 3300 nM |
| COc1cc2c(cc1OC)C1Cc3cc(C)cc(C)c3CN1CC2 (racemic) [DC037018, (±)-2,3-bimethoxy-9,11-dimethyl-5,8,13,13a-tetrahydro-6H-dibenzo[a,g]quinolizine] | 82.5% | 2920 nM | 1440 nM | 77.4% | – | IC50 (dopamine D2 receptor [1]): 15600 nM |
| COc1cc2c(cc1OC)CN1CCc3cc(O)c(O)cc3C1C2 (racemic) [DC037024, (±)-2,3-bihydroxy-10,11-bimethoxy-5,8,13,13a-tetrahydro-6H-dibenzo[a,g]quinolizine] | 91.3% | 1500 nM | 741 nM | 76.2% | – | IC50 (dopamine D2 receptor [1]): 591 nM |
| COc1ccc2c(c1)CCN1Cc3cc(OC)c(OC)cc3C[C@@H]21 [DC037010, S-(+3,10,11-trimethoxy-5,8,13,13a-tetrahydro-6H-dibenzo[a,g]quinolizine] | 66.8% | – | – | 51.5% | – | – |
| COc1cc2c(cc1OC)[C@@H]1Cc3cc4c(cc3CN1CC2)OCO4 [DC037011, S-(−)-2,3-bimethoxy-10,11-methylenedioxy-5,8,13,13a-tetrahydro-6H-dibenzo[a,g]quinolizine] | 59.3% | – | – | 41.7% | – | – |
| c1c2c(cc3c1OCO3)CN1CCc3cc4c(cc3[C@@H]1C2)OCO4 [DC037012, S-(−)-2,3,10,11-bimethylenedioxy-5,8,13,13a-tetrahydro-6H-dibenzo[a,g]quinolizine] | 95.8% | 300 nM | 148 nM | 89.3% | – | IC50 (D2 dopamine receptor): 1240 nM; Ki (D2 dopamine receptor): 240 nM |
| COc1cc2c(cc1OC)CN1CCc3cc4c(cc3[C@@H]1C2)OCO4 [DC037015, S-(−)-2,3-methylenedioxy-10,11-bimethoxy-5,8,13,13a-tetrahydro-6H-dibenzo[a,g]quinolizine] | 59.2% | – | – | 59.3% | – | – |
| COc1cc2c(c(OC)c1OC)CN1CCc3cc4c(cc3[C@@H]1C2)OCO4 [DC037016, S-(−)-2,3-methylenedioxy-9,10,11-bimethoxy-5,8,13,13a-tetra-hydro-6H-dibenzo[a,g]quinolizine] | 95.5% | 763 nM | 377 nM | 66.2% | – | – |
| COc1cc2c(cc1OC)[C@@H]1Cc3cc(OC)c(OC)c(OC)c3[C@H](C)N1CC2 [DC037019, (8S,14S)-2,3,9,10,11-pentamethoxyl-8-methyl-5,8,13,13a-tetra-hydro-6H-dibenzo[a,g]quinolizine] | 10.3% | – | – | 65.3% | – | – |
| COc1cc2c(cc1OC)[C@@H]1Cc3cc4c(cc3[C@H](C)N1CC2)OCO4 [DC037020, (8S,14S)-2,3-bimethoxy-8-methyl-10,11-methylenedioxy-5,8,13,13a-tetrahydro-6H-dibenzo[a,g]quinolizine] | 47.3% | – | – | 57.1% | – | – |
| COc1cc2c(cc1O)[C@@H]1Cc3cc(C)cc(C)c3CN1CC2 [DC037031, S-(−)-2-hydroxy-3-methoxy-9,11-dimethyl-5,8,13,13a-tetra-hydro-6H-dibenzo[a,g]quinolizine] | 98.99% | 56.4 nM | 28.9 nM | 90.10% | 28.9 ± 2.73 nM | affinity on dopamine D1 receptor (in words) (dopamine D1 receptor): strong affinity; IC50 (D2 dopamine receptor): 456 nM; Ki (D2 dopamine receptor): 161 nM; affinity on dopamine D2 receptor (in words) (D2 dopamine receptor): strong affinity; Ki (dopamine D2 receptor [2]): 161 ± 21.1 nM |
| Cc1ccc(C)c2c1CC1c3cc4c(cc3CCN1C2)OCO4 (stereo not drawn) [DC037033, S-(−)-2,3-methylenedioxy-9,12-dimethyl-5,8,13,13a-tetrahydro-6H-dibenzo[a,g]quinolizine] | 91.94% | – | – | 13.75% | – | – |
| COc1ccc(OC)c2c1C[C@H]1c3cc4c(cc3CCN1C2)CCO4 [DC037034, S-(+9,12-bimethoxy-2,3,5,8,13,13a-hexahydro-8H-benzo[3,2,a,g]furanquinolizine] | – | 484 nM | 248 nM | – | – | Ki (5-HT1A receptor): 497 nM |
| COc1ccc(OC)c2c1C[C@H]1c3cc(O)c(O)cc3CCN1C2 [DC037035, S-(−)-2,3-bihydroxy-9,12-bimethoxy-5,8,13,13a-tetrahydro-6H-dibenzo[a,g]quinolizine] | 99.68% | 13.3 nM | 6.72 nM | 84.30% | 6.72 ± 0.34 nM | affinity on dopamine D1 receptor (in words) (dopamine D1 receptor): strong affinity; affinity on dopamine D2 receptor (in words) (D2 dopamine receptor): strong affinity; D2 Inhibition (%) (dopamine D2 receptor [2]): 84.30% |
| COc1cc2c(cc1OC)[C@@H]1Cc3c(CO)c(OC)cc(OC)c3CN1CC2 [DC037076, (S)-2,3,9,11-tetramethoxy-12-hydroxymethyl-5,8,13,13a-tetra-hydro-6H-dibenzo[a,g]quinolizine] | – | – | – | – | 74.5 ± 3.85 nM | D2 Inhibition (%) (dopamine D2 receptor [2]): 1.02% |
| COc1cc2c(c(OC)c1)CN1CCc3cc4c(cc3[C@@H]1C2)OCO4 [DC037078, (S)-2,3-methylenedioxy-9,11-bimethoxy-5,8,13,13a-tetrahydro-6H-dibenzo[a,g]quinolizine] | 97.79% | 142 nM | 74.5 nM | 1.02% | 64.1 ± 4.43 nM | D2 Inhibition (%) (dopamine D2 receptor [2]): 39.50% |
| COc1cc2c(c(OC)c1)CN1CCc3cc(OC)c(O)cc3[C@@H]1C2 [DC037079, (S)-2-hydroxy-3,9,11-trimethoxy-5,8,13,13a-tetrahydro-6H-dibenzo-[a,g]quinolizine] | 99.99% | 9.85 nM | 5.18 nM | 76.21% | 2.53 ± 0.16 nM | affinity on dopamine D1 receptor (in words) (dopamine D1 receptor): strong affinity; affinity on dopamine D2 receptor (in words) (D2 dopamine receptor): strong affinity; D2 Inhibition (%) (dopamine D2 receptor [2]): 83.31%; D1 antagonist Imax % (D1 receptor; [35S]GTPγS binding): 94.2 ± 1.5%; IC50 (D1 receptor; [35S]GTPγS binding, read-out: D1 antagonist IC50): 1400 ± 200 nM; D1 receptor antagonistic activity (in words) (D1 receptor; summary of Table 10): D1 receptor antagonistic activity; D1 receptor selectivity (in words) (D1 receptor; summary of Table 10): good D1 receptor selectivity |
| COc1c(O)ccc2c1CN1CCc3cc4c(cc3[C@@H]1C2)OCC4 [DC037081, S-(−)-9-methoxyl-10-hydroxy-2,3,5,8,13,13a-hexahydro-8H-benzo[3,2,a,g]furanquinolizine] | 22.60% | – | – | 73.07% | 17.3 ± 0.54 nM | Ki (dopamine D2 receptor [2]): 147 ± 10.2 nM |
| COc1c(O)ccc2c1CN1CCc3cc4c(cc3[C@@H]1C2)OCCO4 [DC037082, S-(−)-2,3-bimethylenedioxy-9-methoxyl-10-hydroxy-5,8,13,13a-tetrahydro-6H-dibenzo[a,g]quinolizine] | 99.32% | 14.7 nM | 7.51 nM | 63.94% | – | affinity on dopamine D1 receptor (in words) (dopamine D1 receptor): strong affinity; affinity on dopamine D2 receptor (in words) (D2 dopamine receptor): strong affinity |
| Oc1cc2c(cc1O)C(c1ccccc1)CNCC2 (centres unmarked) [SKF38393, reference compound] | – | – | – | – | – | Emax (D1 receptor; [35S]GTPγS binding, read-out: D1 agonist Emax %): 100% |
